According to patent US20260007688A1, “SYNTHETIC ANALOGS OF CANNABINOL (CBN) FOR THE TREATMENT OF AGERELATED NEUROLOGICAL DISORDERS” (priority 2023, published 2026):
Where two headings read alike, the source gives them in different places.

Experiments:
[1] = tested on: HT22 cells; type: cell-based, mouse
Text: A series of fragment chemicals with different variants of the substructures were assembled and screened in a cell-based phenotypic screening assays in the context of oxytosis/ferroptosis (FIG. 1). Specifically, for the left unit (LU), monoterpenoids with different functional groups and/or double-bond substitutions as well as ring arrangements were screened. For the central unit (CU), benzene rings with different hydroxyl group substitutions were screened. For the right unit (RU), different lengths, with or without branches, of the aliphatic hydrocarbon chains were examined.
CBN, CBD and THC were used as reference compounds.
(§1) Briefly, HT22 cells were seeded at 3,000 cells/well in 96-well tissue culture plates in DMEM plus 10% FBS and 1% antibiotics. After 24 hours of plating, the cells were pretreated with different concentrations of the test compounds or a vehicle control for 1 hour followed by coincubation with 5 mM glutamate to initiate the cell death cascade. After 16 hours of treatment, cell viability was measured by the 3-(4,5-dimethylthiazol-2-yl)-2,5-diphenyltetrazolium bromide (MTT) assay. Optical absorbance was measured at 570 nm on a SpectraMax M5 microplate reader. Samples were analyzed in eight to sixteen wells per independent experiment (n=8-16).
as §1, with “The assay procedure described in Fischer et al. was used. Briefly,” for “Briefly,”, “of” for “of the”, “50-100 nM RSL3 or 500 nM erastin” for “5 mM glutamate”, “induce” for “initiate”, “MTT” for “3-(4,5-dimethylthiazol-2-yl)-2,5-diphenyltetrazolium bromide (MTT)”

[2] = tested on: HT22 cells; assay: Seahorse XF mitochondrial stress test (OCR); type: cell-based, mouse; conditions: 16 hours, compared with the control cells
[3] = tested on: HT22 cells; assay: Mitochondrial reactive oxygen species measurement (MitoSOX Red); type: cell-based, mouse; conditions: 5 μM compound + 50 nM RSL3
Method: The assay procedure described in Liang et al. was used. Briefly, HT22 cells were seeded onto 96-well black walled plates at a density of 3,000 cells/well in DMEM supplemented with 10% FBS and 1% antibiotics. After the desired treatments, the mitochondrial superoxide ROS were detected with MitoSOX Red reagent (Ex/Em=510/580 nm). Experiments were performed according to the manufacturer's instructions. Fluorescence was measured on a SpectraMax M5 microplate reader. Data were normalized for total protein/well. Each condition was analyzed in eight wells per independent experiment (n=8). Results are presented as the percentage of the controls with vehicle alone. Results were verified by live-cell imaging under a fluorescence microscope. FIG. 14 provides the results.

[4] = tested on: HT22 cells; assay: Oxytosis assay, glutamate-induced cell death, MTT viability; type: cell-based; conditions: Mus musculus, HT-22, 5 mM glutamate, 16 hours
Method: (§2) HT22 mouse hippocampal nerve cells were cultured in high-glucose Dulbecco's modified Eagle's medium (DMEM) (Invitrogen, Cat #11995065, Carlsbad, CA) supplemented with 10% fetal bovine serum (FBS) (Invitrogen, Carlsbad, CA) and 1% antibiotics including penicillin and streptomycin (Invitrogen Cat #10378016, Carlsbad, CA). Cell cultures were incubated at 37° C. in a fully humidified atmosphere containing 10% CO2.
The assay procedure described in Fischer et al., “Old age-associated phenotypic screening for Alzheimer's disease drug candidates identifies sterubin as a potent neuroprotective compound from Yerba santa” Redox Biol. 21 (2019) 101089 was used. Briefly, HT22 cells were seeded at 3,000 cells/well in 96-well tissue culture plates in DMEM plus 10% FBS and 1% antibiotics. After 24 hours of plating, the cells were pretreated with different concentrations of the test compounds or a vehicle control for 1 hour followed by coincubation with 5 mM glutamate to initiate the cell death cascade. After 16 hours of treatment, cell viability was measured by the 3-(4,5-dimethylthiazol-2-yl)-2,5-diphenyltetrazolium bromide (MTT) assay. Optical absorbance was measured at 570 nm on a SpectraMax M5 microplate reader. Samples were analyzed in eight to sixteen wells per independent experiment (n=8-16). Results are presented as the percentage of the controls with vehicle alone.

[5] = tested on: HT22 cells; assay: Ferroptosis assay, RSL3-induced cell death, MTT viability; type: cell-based; conditions: Mus musculus, HT-22, 50 nM RSL3, 16 hours
Method: as §2
as §1, with “The assay procedure described in Fischer et al. was used. Briefly,” for “Briefly,”, “of” for “of the”, “50-100 nM RSL3 or 500 nM erastin” for “5 mM glutamate”, “induce” for “initiate”, “MTT” for “3-(4,5-dimethylthiazol-2-yl)-2,5-diphenyltetrazolium bromide (MTT)”, “(n=8-16). Results are presented as the percentage of the controls with vehicle alone.” for “(n=8-16).”

[6] = tested on: MC65 cells; assay: Intracellular amyloid toxicity assay; type: cell-based; conditions: Homo sapiens, 72 h, APP-C99 induced, day 3, MTT, read-out: Aβ toxicity EC50
Text: Accumulation of intracellular amyloid beta peptide (Aβ) is considered by many as being a primary toxic event in AD. The human nerve cell line MC65 conditionally expresses the C99 fragment of the amyloid precursor protein (APP) leading to the accumulation of intracellular AB. The MC65 cells are routinely grown in the presence of tetracycline and, following its removal, the expression of C99 is induced and the cells die within three days because of the accumulation of intracellular, toxic protein aggregates.
For the intracellular amyloid toxicity assay the procedure described in Huang et al., “Intracellular amyloid toxicity induces oxytosis/ferroptosis regulated cell death” Cell Death Dis. 11 (10) (2020) 828 was used. Briefly, MC65 cells were regularly grown in high glucose DMEM supplemented with 10% FCS and 2 μg/ml tetracycline. For the assay, cells were dissociated and plated at 1×10^5 cells per well in 24 well tissue culture plates. After overnight cultivation in growth medium, the cells were washed three times with phosphate buffered saline containing calcium and magnesium and then switched to Opti-minimal essential media (Opti-MEM, Invitrogen) in the presence (no induction) or absence (APP-C99 induced) of 2 μg/ml tetracycline in the presence or absence different concentrations of the indicated compounds. At day 3, the control cells in the absence of tetracycline were dead, and cell viability was determined by the MTT assay. Optical absorbance was measured at 570 nm on a SpectraMax M5 microplate reader. Samples were analyzed in three wells per independent experiment (n=3). Results are presented as EC50.

[7] = tested on: HT22 cells; assay: Ferroptosis assay, erastin-induced cell death, MTT viability; type: cell-based; conditions: Mus musculus, HT-22, 500 nM erastin, 16 hours
Method: as §2
as §1, with “The assay procedure described in Fischer et al. was used. Briefly,” for “Briefly,”, “of” for “of the”, “50-100 nM RSL3 or 500 nM erastin” for “5 mM glutamate”, “induce” for “initiate”, “MTT” for “3-(4,5-dimethylthiazol-2-yl)-2,5-diphenyltetrazolium bromide (MTT)”, “(n=8-16). Results are presented as the percentage of the controls with vehicle alone.” for “(n=8-16).”

[8] = tested on: Drosophila melanogaster; assay: Drosophila mild traumatic brain injury (mTBI) model; type: in vivo; conditions: 3.0 μM in food, 3 weeks after mTBI (10×); vehicle 70.2%

Structure (SMILES): CC(C)(C)c1cc(O)ccc1O [2-tert-butylbenzene-1,4-diol]
- neuroprotective activity against oxytosis/ferroptosis ([1]; 10-50 μM, glutamate and RSL3): good to excellent neuroprotective activity

Structure (SMILES): CCCCc1ccc(O)c(O)c1 [4-butylbenzene-1,2-diol]
- neuroprotective activity against oxytosis/ferroptosis ([1]; 10-50 μM, glutamate and RSL3): good to excellent neuroprotective activity

Structure (SMILES): CCCCCCc1ccc(O)cc1O [4-hexylresorcinol, 4-hexylbenzene-1,3-diol]
- neuroprotective activity against oxytosis/ferroptosis ([1]; 10-50 μM, glutamate and RSL3): good to excellent neuroprotective activity

Structure (SMILES): CCCCCCC(C)(C)c1cc(O)cc(O)c1 [5-(1,1-dimethylheptyl) resorcinol]
- neuroprotection ([1]; 1 μM): > 50%

Structure (SMILES): CCCCCCCCCCCCCCCc1cc(O)cc(O)c1 [5-pentadecylresorcinol]
- neuroprotective activity against oxytosis/ferroptosis ([1]; 1-50 μM, glutamate and RSL3): no further improvement in neuroprotective activity

Structure (SMILES): CCCCCCC(C)(C)c1cc(O)c2c(c1)OC(C)(C)C=C2 [CP1, 2,2-dimethyl-7-(2-methyloctan-2-yl)-2H-chromen-5-ol]
- maximal and spare mitochondrial respiration (OCR) [2]: strongest effect on the suppression
- RSL3-induced mtROS production [3]: strongest anti-mtROS effect
- EC50 [4]: 1890 nM
- EC50 [5]: 680 nM
- EC50 [6]: 31 nM
- EC50 [7]: 2780 nM
- 3-week mortality index (MI), percentage of dead flies [8]: 49.5%

Structure (SMILES): CCCCCCC(C)(C)c1cc(O)c2c(c1)OC(C)C=C2 (centres unmarked) [CP2, 2-methyl-7-(2-methyloctan-2-yl)-2H-chromen-5-ol]
- EC50 [4]: 2890 nM
- EC50 [5]: 920 nM
- EC50 [6]: 97 nM
- EC50 [7]: 3360 nM
- 3-week mortality index (MI), percentage of dead flies [8]: 66.7%

Structure (SMILES): CCCCCc1cc(O)c2c(c1)OC(C)(C)C=C2 [CP3, 2,2-dimethyl-7-pentyl-2H-chromen-5-ol]
- EC50 [4]: 2600 nM
- EC50 [5]: 860 nM
- EC50 [6]: 144 nM
- EC50 [7]: 3780 nM
- 3-week mortality index (MI), percentage of dead flies [8]: 67.3%

Structure (SMILES): CCCCCc1cc(O)c2c(c1)OC(C)C=C2 (centres unmarked) [CP4, 2-methyl-7-pentyl-2H-chromen-5-ol]
- EC50 [4]: 6630 nM
- EC50 [5]: 830 nM
- EC50 [6]: 1600 nM
- EC50 [7]: 8080 nM
- 3-week mortality index (MI), percentage of dead flies [8]: 61.9%

Structure (SMILES): Oc1ccccc1O [catechol]
- neuroprotective activity against oxytosis/ferroptosis ([1]; 10-50 μM, glutamate and RSL3): weak neuroprotective activities

Structure (SMILES): Oc1ccc(O)cc1 [hydroquinone]
- neuroprotective activity against oxytosis/ferroptosis [1]: weak neuroprotective activities

Structure (SMILES): Oc1ccc(O)c(O)c1 [hydroxyquinol]
- neuroprotective activity against oxytosis/ferroptosis ([1]; 1-50 μM, glutamate and RSL3): limited neuroprotective activity

Structure (SMILES): CCCCCc1cc(O)cc(O)c1 [olivetol, 5-pentyl-1,3-benzenediol]
- neuroprotective activity against oxytosis/ferroptosis ([1]; 10-50 μM, glutamate and RSL3): good to excellent neuroprotective activity

Structure (SMILES): Oc1ccccc1 [phenol]
- neuroprotective activity against oxytosis/ferroptosis [1]: limited neuroprotective activity

Structure (SMILES): Oc1cc(O)cc(O)c1 [phloroglucinol]
- neuroprotective activity against oxytosis/ferroptosis ([1]; 1-50 μM, glutamate and RSL3): limited neuroprotective activity

Structure (SMILES): Oc1cccc(O)c1O [pyrogallol]
- neuroprotective activity against oxytosis/ferroptosis ([1]; 1-50 μM, glutamate and RSL3): limited neuroprotective activity

Structure (SMILES): Oc1cccc(O)c1 [resorcinol]
- neuroprotective activity against oxytosis/ferroptosis ([1]; 1-50 μM, glutamate and RSL3): limited neuroprotective activity
